According to ChEMBL document CHEMBL1156829 (Proc Natl Acad Sci U S A, 2008):
pEC50: −log10 of the molar value.

Columns and labels:
[1] = system: Plasmodium falciparum; assay: NOVARTIS: Inhibition of Plasmodium falciparum W2 (drug-resistant) proliferation in erythrocyte-based infection assay; type: functional, organism-based; conditions: Plasmodium falciparum, W2; read-out: EC50
[2] = NOVARTIS: Cytotoxicity against human hepatocellular carcinoma cell line (Huh7); type: toxicity, cell-based, Huh-7; conditions: Huh7 cells (hepatocellular carcinoma cell line)
[3] = system: Plasmodium falciparum; assay: NOVARTIS: Inhibition of Plasmodium falciparum 3D7 (drug-susceptible) proliferation in erythrocyte-based infection assay; type: functional, organism-based; conditions: Plasmodium falciparum, 3D7

Structure (SMILES) | pEC50 [1] | CC50 [2] [µM] | pEC50 [3]
O=[N+]([O-])c1ccc(C=NNc2nc(Nc3ccccc3)nc(Nc3ccccc3)n2)o1 | 6.34 | 20.7 | 6.20
COc1ccc(-c2cc(C(F)(F)F)n3ncc(C(=O)Nc4cc(C)ccc4O)c3n2)cc1OC | 5.67 | > 100 | 5.47
CC(C)(C)NC(=S)Nc1cccc(Cl)c1Cl | 5.68 | > 100 | < 5.14
CCN1CCN(c2cc(C)c3cc(NC(=O)c4cncc(Br)c4)ccc3n2)CC1 | 6.39 | 19.4 | 6.58
CC(C)(C)CC(C)(C)Nc1c(-c2ccccc2OC(=O)c2ccccc2)nc2ccccn12 | 7.57 | > 1.26 | 5.97
CC(Cc1ccccc1Sc1ccccc1O)N(C)C (stereo not given) | 6.14 | 34 | 5.69
COc1ccccc1NC1=CC(=NS(=O)(=O)c2ccccc2)c2ccccc2C1=O | 6.54 | 13.6 | 6.65
Fc1cccc(Nc2nc(NCC3CCCO3)c3ccccc3n2)c1 (stereo not given) | 6.69 | 9.58 | 6.85
O=C(NN=Cc1ccncc1)c1cc(-c2cccc([N+](=O)[O-])c2)[nH]n1 | 5.67 | > 100 | < 5.09
CCOC(=O)c1c(S(=O)(=O)N2CCCC(C(=O)N3CCN(c4cccc(C)c4C)CC3)C2)c(C)n(C)c1C (stereo not given) | 5.67 | > 100 | 6.03
O=C(Nc1ccc(C2=NCCN2)cc1)Nc1cccc(C(=O)Nc2ccc(C3=NCCN3)cc2)c1 | 6.68 | > 10 | 6.97
CC(C)NC(=O)N1CCN(C(=O)C(Cc2c[nH]c3ccccc23)NC(=O)Nc2cccc(C#N)c2)CC1C (stereo not given) | 6.68 | > 10 | 7.25
CCOC(=O)c1ccc(NC(=O)c2cc(-c3ccccc3)nc3ccc(C)cc23)cc1 | 5.68 | > 100 | < 4.90
Cc1ccc(-c2cc3nc4c(c(O)n3n2)CCCC4)cc1 | 5.68 | > 100 | 5.80
COc1ccccc1NC1=CC(=NS(=O)(=O)c2ccc(F)cc2)c2ccccc2C1=O | 6.37 | 20.6 | 6.43
CCCN1CCC(N2C[C@@H](NCCC3=C(C)CCCC3(C)C)C[C@H]2C(=O)NCC)CC1 | 6.12 | 35.1 | 5.63
Cc1c[nH]c(CCNCc2ccc(OCC(O)CN(C)Cc3ccccc3)cc2)n1 (stereo not given) | 5.92 | 54.8 | 5.83
COc1ccc(-c2c[n+](Cc3ccc(Cl)cc3Cl)c3n2CCC3)cc1 | 6.18 | 31.8 | 6.72
Cc1cccc2cc(C(c3nnnn3C3CCCC3)N3CCCC4(CCCCC4)C3)c(=O)[nH]c12 (stereo not given) | < 6.68 | > 10 | < 5.90
CC1=C(CC(=O)c2ccc(Cl)cc2)C(=O)c2ccccc2C1=O | 5.99 | 46.6 | 5.56
COc1ccc2nc(C)cc(Nc3cccc(Cl)c3)c2c1 | 5.96 | 50.2 | 6.43
O=C(Nc1ccc(-c2nc3ccccc3[nH]2)cc1)c1ccccc1Oc1ccccc1 | 5.67 | > 100 | 5.80
CC12CCC(CN(CC(O)Cn3c4ccc(Br)cc4c4cc(Br)ccc43)C1)C2(C)C (stereo not given) | 5.66 | > 100 | 5.53
O=C(Cn1ccc(=NCc2ccccc2)cc1)c1ccc(I)cc1 | 6.35 | 20.8 | 6.51
COC1=CC(=O)c2c(ccc3cc(O)ccc23)C1=O | 6.67 | > 10 | 6.12
Cn1c(SCC(=O)Nc2cccc(F)c2)nc2c(c1=O)SCC2 | 5.67 | > 100 | 5.62
CN(CCCNc1ccnc2cc(Cl)ccc12)C(=O)c1ccc2c(c1)OCO2 | 6.67 | > 10 | 6.60
CCOc1cc(/C=C(\C#N)c2nc3ccccc3[nH]2)ccc1OCc1ccccc1C#N | 6.67 | > 10 | < 5.95

Structure (SMILES) | pEC50 [1] | CC50 [2] [µM] | pEC50 [3]
CCOc1ccccc1NC(=O)Nc1ccc2nc(N3CCN(C)CC3)cc(C)c2c1 | 6.34 | 21.4 | 5.93
C[n+]1cccc(CNC2=C(Cl)C(=O)c3ccccc3C2=O)c1 | 6.67 | > 10 | 6.90
C(#Cc1ccccc1)CN(Cc1ccccn1)Cc1ccccn1 | 6.52 | > 14.1 | 5.81
Cc1ccc(Nc2nc(NCc3ccccc3)c3ccccc3n2)cc1 | 6.62 | 10.9 | 6.74
CCN(CC)C/C=C/C1(O)c2ccccc2-c2ccccc21 | 6.66 | > 10 | 5.99
CN(CCCNc1ccnc2cc(Cl)ccc12)C(=O)c1ccc(F)cc1 | 6.67 | > 10 | 6.90
CC1=C(CC(=O)c2ccccc2)C(=O)c2ccccc2C1=O | 6.52 | 13.8 | 5.57
Cc1ccc(/C=C/c2ccc3ccccc3[n+]2C)cc1 | 6.66 | > 10 | 6.88
Cc1cc(C)c2cc(CN(CCN(C)C)C(=S)NCCCN(C)C)c(=O)[nH]c2c1 | 5.67 | > 100 | 5.70
O=C(Nc1cccnc1)c1cc(-c2cccnc2)nc2ccc(Br)cc12 | 5.67 | > 100 | < 4.90
CCOC(=O)c1cccc(OC(=O)c2ccccc2)c1 | 5.67 | > 100 | < 5.12
COc1ccc(-c2cc(C(=O)Nc3cc(Oc4ccc(NC(C)=O)cc4)cc([N+](=O)[O-])c3)c3ccccc3n2)cc1 | 5.68 | > 100 | < 4.90
CC(C)=CCCC(C)=CCCC(C)NCCN1CCNCC1 (stereo not given) | 6.85 | 6.69 | 6.39
CCC(=O)Oc1ccccc1-c1nc2ccccn2c1NC(C)(C)CC(C)(C)C | 7.46 | 1.65 | 6.13
CCCCc1c(C)nc2c(OC)cccc2c1O | 5.67 | > 100 | 5.77
CC(C)(C)c1ccc(C(=O)NCCCCNc2ccnc3cc(Cl)ccc23)cc1 | 6.64 | > 10.9 | 6.75
O=c1cc(C(F)(F)F)c2cc(Cl)c(O)cc2o1 | 5.67 | > 100 | < 4.90
O=C(c1cccc(F)c1)N1CCN(Cc2ccncc2)CC1 | 5.66 | > 100 | < 5.00
Cc1ccn2c(NC(C)(C)CC(C)(C)C)c(-c3ccccc3OC(=O)C34CC5CC(CC(C5)C3)C4)nc2c1 | 6.67 | > 10 | 6.10
c1ccc2c(c1)ccc1cc3cccc[n+]3cc12 | 6.10 | 37 | 5.86
Cc1ccc(NC(=O)c2ccc(NCCCN3CCCCCC3)c([N+](=O)[O-])c2)cc1F | 6.43 | 16.9 | 7.03
Cc1ccccc1N1C(=O)C2C3c4ccccc4C(C(=O)O)(c4ccccc43)C2C1=O (stereo not given) | 5.66 | > 100 | < 4.90
Cc1ccc(Nc2nc(NCCO)c3ccccc3n2)cc1C | 6.97 | 4.9 | 6.76
COc1cccc(CN2CCc3nc(N4CCCCC4)sc3C2)c1 | 6.66 | > 10 | 6.28
COc1ccc2ccccc2c1C1CC(=O)N2CN(Cc3ccco3)CSC2=C1C#N (stereo not given) | 5.66 | > 100 | 5.48
Cc1ccccc1Cn1c(N2CCC(C(=O)NCc3ccccn3)CC2)nc2ccccc21 | 5.67 | > 100 | 5.71
CC(C)=CCCC1=CCC(CNCCCN(C)C)C(C)C1 (stereo not given) | 6.38 | 18.9 | 5.76
